Experimental data as given in patent US6706663B2, “Herbicidal 3-heterocyclic substituted benzisothiazole and benzisoxazole compounds” (Wyeth, priority 2000, dated 2004).

Experiments:
[1] = test system: TRZAWR (Wheat, Winter, cv Riband); test: Preemergence herbicidal evaluation; type: in vivo, Triticum aestivum; conditions: rated 4-5 weeks after treatment
Method in brief: (§1)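 Seeds mixed with potting soil were planted atop about one inch of soil, then sprayed with test compound in aqueous acetone. Cups were kept in the greenhouse and rated visually 4–5 weeks after treatment on a 0–9 scale against untreated control.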

[2] = test system: GLXMAW (Soybean, Williams); test: Preemergence herbicidal evaluation; type: in vivo, Glycine max, (L.) Merr. cv Williams; conditions: rated 4-5 weeks after treatment
[3] = test system: ABUTH (Abutilon theophrasti); test: Preemergence herbicidal evaluation; type: in vivo, Medic.; conditions: rated 4-5 weeks after treatment
[4] = test system: GALAP (Galium aparine); test: Preemergence herbicidal evaluation; type: in vivo; conditions: rated 4-5 weeks after treatment
Method in brief: as §1

[5] = test system: CYPSE (Cyperus serotinus); test: Flooded paddy, preemergence weed control; type: in vivo, Rottb.; conditions: rated 3-4 weeks after treatment, 0-9 rating scale
Method in brief: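 Seeds or propagules were planted 0.5 cm deep in silt loam and flooded to 1.5–3 cm. Compounds in 50/50 v/v aqueous/acetone were pipetted into the flood water at about 0.0080 to 0.1250 kg/ha. After 3–4 weeks in the greenhouse, effect was rated visually on a 0–9 scale versus untreated control.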

[6] = test system: GLXMA (Soybean); test: Preemergence herbicidal evaluation; type: in vivo, Glycine max, (L.) Merr.; conditions: rated 4-5 weeks after treatment
[7] = test system: TRZAWR (Wheat, Winter, cv Riband); test: Postemergence herbicidal evaluation; type: in vivo, Triticum aestivum
Method in brief: (§2)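 Seedlings grown for about two weeks were sprayed postemergence and then kept under standard greenhouse care. Injury was rated visually 4–5 weeks after treatment on a 0–9 scale against untreated controls, and ratings from repeat tests were averaged.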

[8] = test system: ZEAMX (Corn, Field); test: Preemergence herbicidal evaluation; type: in vivo, Zea mays, L.; conditions: rated 4-5 weeks after treatment
[9] = test system: AMBEL (Ambrosia artemisifolia); test: Postemergence herbicidal evaluation; type: in vivo, L.
Method in brief: as §2

[10] = test system: CHEAL (Chenopodium album); test: Postemergence herbicidal evaluation; type: in vivo, L.
Method in brief: as §2

[11] = test system: CASOB (Cassia obtusifolia); test: Postemergence herbicidal evaluation; type: in vivo, L.
Method in brief: as §2

Compound: Cn1c(C(F)(F)F)cc(=O)n(-c2ccc3snc(C4OCCO4)c3c2)c1=O [Compound 45, 3-[3-(1,3-dioxolan-2-yl)-1,2-benzisothiazol-5-yl]-1-methyl-6-(trifluoromethyl)uracil]
- Preemergence herbicidal rating TRZAWR ([1]; Rate 0.0620 kg/ha): 9.0
- Preemergence herbicidal rating TRZAWR ([1]; Rate 0.1250 kg/ha): 9.0
- Preemergence herbicidal rating TRZAWR ([1]; Rate 0.2500 kg/ha): 9.0
- Preemergence herbicidal rating GLXMAW ([2]; Rate 0.0620 kg/ha): 9.0
- Preemergence herbicidal rating GLXMAW ([2]; Rate 0.1250 kg/ha): 9.0
- Preemergence herbicidal rating GLXMAW ([2]; Rate 0.2500 kg/ha): 9.0
- Preemergence herbicidal rating ABUTH ([3]; Rate 0.0620 kg/ha): 9.0
- Preemergence herbicidal rating ABUTH ([3]; Rate 0.1250 kg/ha): 9.0
- Preemergence herbicidal rating ABUTH ([3]; Rate 0.2500 kg/ha): 9.0
- Preemergence herbicidal rating GALAP ([4]; Rate 0.0620 kg/ha): 7.0
- Preemergence herbicidal rating GALAP ([4]; Rate 0.1250 kg/ha): 9.0
- Preemergence herbicidal rating GALAP ([4]; Rate 0.2500 kg/ha): 9.0
- herbicidal rating, CYPSE ([5]; rate 0.0080 kg/ha): 9.0
- herbicidal rating, CYPSE ([5]; rate 0.0320 kg/ha): 9.0
- herbicidal rating, CYPSE ([5]; rate 0.1250 kg/ha): 9.0
- Preemergence herbicidal rating GLXMA ([6]; Rate 0.0620 kg/ha): 9.0
- Preemergence herbicidal rating GLXMA ([6]; Rate 0.1250 kg/ha): 9.0
- Preemergence herbicidal rating GLXMA ([6]; Rate 0.2500 kg/ha): 9.0
- Postemergence herbicidal rating, TRZAWR ([7]; rate 0.0320 kg/ha): 4.4
- Postemergence herbicidal rating, TRZAWR ([7]; rate 0.0620 kg/ha): 5.0
- Preemergence herbicidal rating ZEAMX ([8]; Rate 0.0620 kg/ha): 8.8
- Preemergence herbicidal rating ZEAMX ([8]; Rate 0.1250 kg/ha): 9.0
- Preemergence herbicidal rating ZEAMX ([8]; Rate 0.2500 kg/ha): 8.7
- Postemergence herbicidal rating, AMBEL ([9]; rate 0.0320 kg/ha): 9.0
- Postemergence herbicidal rating, AMBEL ([9]; rate 0.0620 kg/ha): 9.0
- Postemergence herbicidal rating, CHEAL ([10]; rate 0.0320 kg/ha): 8.5
- Postemergence herbicidal rating, CHEAL ([10]; rate 0.0620 kg/ha): 9.0
- Postemergence herbicidal rating, CASOB ([11]; rate 0.0320 kg/ha): 5.0
- Postemergence herbicidal rating, CASOB ([11]; rate 0.0620 kg/ha): 9.0
